In PMC11050599, “Novel Tetracyclic Azaphenothiazines with the Quinoline Ring as New Anticancer and Antibacterial Derivatives of Chlorpromazine” (International Journal of Molecular Sciences, 2024):
Values after ≈ are worked out from the molar mass of the structure shown. Like-named read-outs stand apart in the source and are kept apart here.

Experiments:
E. coli ATCC 25922 = experiment: MIC broth microdilution; format: cell-based; conditions: 19 h, 35 °C; for MIC: Escherichia coli, ATCC25922, read-out: MIC E. coli ATCC 25922
Description: (§1) To evaluate the antibacterial effectiveness of chloroquinobenzothiazine derivatives, various bacterial strains from international microbe collections such as the American Type Culture Collection (ATCC) and the National Collection of Type Culture (NCTC) were examined, alongside a panel of clinical rods. This included two Gram-negative organisms, E. coli ATCC 25922 and P. aeruginosa ATCC 15442, and a series of six Gram-positive strains: S. aureus NCTC 4163; S. aureus ATCC 29213, 25923, and 6538; and S. epidermidis ATCC 12228 and 35984. […] The MIC was determined using the two-fold serial broth microdilution method in 96-well microtitration plates containing Mueller-Hinton II broth medium (Becton Dickinson, Franklin Lakes, NJ, USA). The final inoculum for all tested bacteria was adjusted to […] (colony-forming units per milliliter). The stock solution of the tested compounds was prepared in dimethyl sulfoxide (DMSO) and diluted to a maximum of 1% solvent content with a sterile medium.

[1] = test system: S. epidermidis ATCC 12228; experiment: MIC broth microdilution; format: cell-based; conditions: 19 h, 35 °C; for MIC: Staphylococcus epidermidis, ATCC12228, read-out: MIC S. epidermidis ATCC 12228
Description: as §1

S. aureus ATCC 29213 = experiment: MIC broth microdilution; format: cell-based; conditions: 19 h, 35 °C; for MIC: Staphylococcus aureus, ATCC29213, read-out: MIC S. aureus ATCC 29213
Description: as §1

P. aeruginosa ATCC 15442 = experiment: MIC broth microdilution; format: cell-based; conditions: 19 h, 35 °C; for MIC: Pseudomonas aeruginosa, ATCC15442, read-out: MIC P. aeruginosa ATCC 15442
Description: as §1

S. aureus ATCC 25923 = experiment: MIC broth microdilution; format: cell-based; conditions: 19 h, 35 °C; for MIC: Staphylococcus aureus, ATCC25923, read-out: MIC S. aureus ATCC 25923
Description: as §1

S. aureus NCTC 4163 = experiment: MIC broth microdilution; format: cell-based; conditions: 19 h, 35 °C; for MIC: Staphylococcus aureus, NCTC4163, read-out: MIC S. aureus NCTC 4163
Description: as §1

S. aureus ATCC 6538 = experiment: MIC broth microdilution; format: cell-based; conditions: 19 h, 35 °C; for MIC: Staphylococcus aureus, ATCC6538, read-out: MIC S. aureus ATCC 6538
Description: as §1

[2] = test system: S. epidermidis ATCC 35984; experiment: MIC broth microdilution; format: cell-based; conditions: 19 h, 35 °C; for MIC: Staphylococcus epidermidis, ATCC35984, read-out: MIC S. epidermidis ATCC 35984
Description: as §1

[3] = test system: HaCaT (immortalized human keratinocytes); experiment: MTT assay, HaCaT normal cells; format: cell-based; conditions: MTT, 72 h, normal cells, read-out: IC50 HaCaT (Table 3)
Procedure: (§2) The human cell lines, such as A549 (lung cancer), MDA-MB-231 (breast cancer), MiaPaca-2 (pancreatic cancer), PC3 (metastatic prostate cancer), HCT-116 (colon carcinoma), and HaCaT (immortalized keratinocytes), were sourced from the American Type Culture Collection (ATCC) in Rockville, USA. Culturing conditions varied as follows: HCT116 cells were cultured in MEM (ThermoSci, Waltham, MA, USA), A549, MDA-MB-231, MiaPaca, HaCaT cells in DMEM High Glucose and PC3 cells were cultured in RPMI (Biowest SAS, Nuaillé, France). The growth medium consisted of 10% fetal bovine serum (FBS, Sigma-Aldrich, St. Louis, MO, USA), 20 mM HEPES (Biowest, Nuaillé, France), and antibiotics (100 U/mL of penicillin and 100 μg/mL of streptomycin) from Gibco, Grand Island, NY, USA. […] These compounds were added to 96-well plates containing study cells (1 × 10^4 cells per well) and incubated for 72 h. […] Cell absorbance results were incorporated into the formula for calculating the relative MTT level (%), enabling the assessment of cell viability following exposure to the test compounds. The cell viability percentage represents the MTT reduction in cells treated with the test compounds compared to the control sample, where only the medium was added to the cells.

A549 (lung cancer) = experiment: MTT assay, A549 cells; format: cell-based, human; conditions: for IC50: MTT, 72 h, mean SD, read-out: IC50 A549; for SI A549: SI = IC50 for normal cell line (HaCaT)/IC50 cancer cell line
Procedure: as §2

[4] = test system: MDA-MB-231 (breast cancer); experiment: MTT assay, MDA-MB-231 cells; format: cell-based, human; conditions: for IC50: MTT, 72 h, MDA-MB231, read-out: IC50 MDA; for SI MDA: SI = IC50 for normal cell line (HaCaT)/IC50 cancer cell line
Procedure: as §2

Molecule | MIC (E. coli ATCC 25922) [µg/mL] | MIC [1] [µg/mL] | MIC (S. aureus ATCC 29213) [µg/mL] | MIC (P. aeruginosa ATCC 15442) [µg/mL] | MIC (S. aureus ATCC 25923) [µg/mL] | MIC (S. aureus NCTC 4163) [µg/mL] | MIC (S. aureus ATCC 6538) [µg/mL] | MIC [2] [µg/mL] | IC50 ([3]; Homo sapiens, HaCaT) [µM] | IC50 (A549 (lung cancer); Homo sapiens, A549) [µM] | SI A549 (A549 (lung cancer)) | IC50 ([4]; Homo sapiens, MDA-MB-231) [µM] | SI MDA [4] | further results
CCOC(=O)NCCCN1c2cc(Cl)ccc2Sc2cc3ccccc3nc21 [Compound 18, Ethyl(3-(8-chloroquino[3,2-b]benzo[1,4]thiazin-6-yl)propyl)carbamate] | > 256 | > 256 | > 256 | > 256 | > 256 | > 256 | > 256 | > 256 | > 100 | 86.6 ± 0.8 | 1.1 | > 100 | 1.0 | –
CCN(CC)CCN1c2cc(Cl)ccc2Sc2cc3ccccc3nc21 [Compound 7, 2-(8-Chloroquino[3,2-b]benzo[1,4]thiazin-6-yl)-N,N-diethylethan-1-amine] | > 256 | 8 (≈ 20.8 µM) | 8 (≈ 20.8 µM) | > 256 | 8 (≈ 20.8 µM) | 8 (≈ 20.8 µM) | 8 (≈ 20.8 µM) | 8 (≈ 20.8 µM) | > 100 | 27.2 ± 8.4 | 3.7 | > 100 | 1.0 | –
Fc1ccc(Cn2cc(CN3c4cc(Cl)ccc4Sc4cc5ccccc5nc43)nn2)cc1 [Compound 30, 8-chloro-6-((1-(4-fluorobenzyl)-1H-1,2,3-triazol-4-yl)methyl)-quino[3,2-b]benzo[1,4]thiazine] | > 256 | > 256 | > 256 | > 256 | > 256 | > 256 | > 256 | > 256 | > 100 | > 100 | 1.0 | > 100 | 1.0 | –
N#Cc1ccc(Cn2cc(CN3c4cc(Cl)ccc4Sc4cc5ccccc5nc43)nn2)cc1 [Compound 32, 4-((4-((8-Chloroquino[3,2-b]benzo[1,4]thiazin-6-yl)methyl)-1H-1,2,3-triazol-1-yl)methyl)benzonitrile] | > 256 | > 256 | > 256 | > 256 | > 256 | > 256 | > 256 | > 256 | > 100 | > 100 | 1.0 | > 100 | 1.0 | –
8-Chloro-6-[(1-benzyl-1H-1,2,3-triazol-4-yl)-methyl]-quinobenzo[1,4]thiazine [Compound 29] | – | – | – | – | – | – | – | – | – | – | 1.0 | – | 1.0 | MIC E. coli ATCC 25922 (E. coli ATCC 25922): >256 µg/mL; MIC S. epidermidis ATCC 12228 [1]: >256 µg/mL; MIC S. aureus ATCC 29213 (S. aureus ATCC 29213): >256 µg/mL; MIC P. aeruginosa ATCC 15442 (P. aeruginosa ATCC 15442): >256 µg/mL; MIC S. aureus ATCC 25923 (S. aureus ATCC 25923): >256 µg/mL; MIC S. aureus NCTC 4163 (S. aureus NCTC 4163): >256 µg/mL; MIC S. aureus ATCC 6538 (S. aureus ATCC 6538): >256 µg/mL; MIC S. epidermidis ATCC 35984 [2]: >256 µg/mL; IC50 [3]: > 100 µM; IC50 (A549 (lung cancer)): > 100 µM; IC50 [4]: > 100 µM
CCOC(=O)NCCCCN1c2cc(Cl)ccc2Sc2cc3ccccc3nc21 [Compound 19, Ethyl(4-(8-chloroquino[3,2-b]benzo[1,4]thiazin-6-yl)butyl)carbamate] | > 256 | > 256 | > 256 | > 256 | > 256 | > 256 | > 256 | > 256 | > 100 | > 100 | 1.0 | > 100 | 1.0 | –
FC(F)(F)c1ccc(-n2cc(CN3c4cc(Cl)ccc4Sc4cc5ccccc5nc43)nn2)cc1 [Compound 28, 8-Chloro-6-((1-(4-(trifluoromethyl)phenyl)-1H-1,2,3-triazol-4-yl)methyl)-quino[3,2-b]benzo[1,4]thiazine] | > 256 | > 256 | > 256 | > 256 | > 256 | > 256 | > 256 | > 256 | > 100 | > 100 | 1.0 | > 100 | 1.0 | –
CC(=O)NCCCN1c2cc(Cl)ccc2Sc2cc3ccccc3nc21 [Compound 16, N-(3-(8-Chloroquino[3,2-b]benzo[1,4]thiazin-6-yl)propyl)acetamide] | > 256 | > 256 | > 256 | > 256 | > 256 | > 256 | > 256 | > 256 | > 100 | 24.6 ± 6.1 | 4.1 | 76.6 ± 8.9 | 1.3 | –
8-Chloro-6-[(1-(4-chlorobenzyl)-1H-1,2,3-triazol-4-yl)methyl]-quinobenzo[1,4]thiazine [Compound 31] | – | – | – | – | – | – | – | – | – | – | 1.0 | – | 1.0 | MIC E. coli ATCC 25922 (E. coli ATCC 25922): >256 µg/mL; MIC S. epidermidis ATCC 12228 [1]: >256 µg/mL; MIC S. aureus ATCC 29213 (S. aureus ATCC 29213): >256 µg/mL; MIC P. aeruginosa ATCC 15442 (P. aeruginosa ATCC 15442): >256 µg/mL; MIC S. aureus ATCC 25923 (S. aureus ATCC 25923): >256 µg/mL; MIC S. aureus NCTC 4163 (S. aureus NCTC 4163): >256 µg/mL; MIC S. aureus ATCC 6538 (S. aureus ATCC 6538): >256 µg/mL; MIC S. epidermidis ATCC 35984 [2]: >256 µg/mL; IC50 [3]: > 100 µM; IC50 (A549 (lung cancer)): > 100 µM; IC50 [4]: > 100 µM
Clc1ccc2c(c1)N(CCN1CCCCC1)c1nc3ccccc3cc1S2 [Compound 10, 8-Chloro-6-(2-(piperidin-1-yl)ethyl)-quino[3,2-b]benzo[1,4]thiazine] | > 256 | > 256 | > 256 | > 256 | > 256 | > 256 | > 256 | > 256 | > 100 | 63.8 ± 8.5 | 1.6 | > 100 | 1.0 | –
CS(=O)(=O)NCCCN1c2cc(Cl)ccc2Sc2cc3ccccc3nc21 [Compound 22, N-(3-(8-Chloroquino[3,2-b]benzo[1,4]thiazin-6-yl)propyl)methanesulfonamide] | > 256 | > 256 | > 256 | > 256 | > 256 | > 256 | > 256 | > 256 | > 100 | > 100 | 1.0 | > 100 | 1.0 | –
CC(=O)NCCCCN1c2cc(Cl)ccc2Sc2cc3ccccc3nc21 [Compound 17, N-(4-(8-Chloroquino[3,2-b]benzo[1,4]thiazin-6-yl)butyl)acetamide] | > 256 | > 256 | > 256 | > 256 | > 256 | > 256 | > 256 | > 256 | > 100 | 82.3 ± 6.2 | 1.2 | > 100 | 1.0 | –
